PubChem BioAssay (NCI)
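Where inhibition never reached the appropriate level, the endpoint shown equals the highest concentration tested. Otherwise, values were interpolated linearly from a five-concentration, 48-hour dose response in 96-well plates. Abbreviation: GI50, concentration required for 50% inhibition of growth. TGI marks complete inhibition of growth.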

Key:
Assay in all cases: DTP human tumour cell line panel, 48 h
[1] = tested on: 786-0 renal
[2] = tested on: A498 renal
[3] = tested on: A549 NSCLC
[4] = tested on: ACHN renal
[5] = tested on: BT-549 breast
[6] = tested on: CAKI-1 renal
[7] = tested on: CCRF-CEM leukemia
[8] = tested on: COLO 205 colon
[9] = tested on: DU-145 prostate
[10] = tested on: EKVX NSCLC
[11] = tested on: HCC-2998 colon
[12] = tested on: HCT-116 colon
[13] = tested on: HCT-15 colon
[14] = tested on: HL-60(TB) leukemia
[15] = tested on: HOP-62 NSCLC
[16] = tested on: HOP-92 NSCLC
[17] = tested on: HS 578T breast
[18] = tested on: HT29 colon
[19] = tested on: IGROV1 ovarian
[20] = tested on: KM12 colon
[21] = tested on: LOX IMVI melanoma
[22] = tested on: M14 melanoma
[23] = tested on: MCF7 breast
[24] = tested on: MDA-MB-231 breast
[25] = tested on: MDA-MB-435
[26] = tested on: NCI-H226 lung
[27] = tested on: NCI-H23 lung
[28] = tested on: NCI-H460 lung
[29] = tested on: NCI-H522 lung
[30] = tested on: NCI/ADR-RES ovarian
[31] = tested on: OVCAR-3 ovarian
[32] = tested on: OVCAR-5 ovarian
[33] = tested on: OVCAR-8 ovarian
[34] = tested on: PC-3 prostate
[35] = tested on: RPMI-8226 leukemia
[36] = tested on: RXF 393 renal
[37] = tested on: SF-268 CNS
[38] = tested on: SF-295 CNS
[39] = tested on: SF-539 CNS
[40] = tested on: SK-MEL-2 melanoma
[41] = tested on: SK-MEL-28 melanoma
[42] = tested on: SK-MEL-5 melanoma
[43] = tested on: SK-OV-3 ovarian
[44] = tested on: SN12C renal
[45] = tested on: SNB-19 CNS
[46] = tested on: SNB-75 CNS
[47] = tested on: SW-620 colon
[48] = tested on: T-47D breast
[49] = tested on: TK-10 renal
[50] = tested on: U251 CNS
[51] = tested on: UACC-257 melanoma
[52] = tested on: UACC-62 melanoma
[53] = tested on: UO-31 renal

Compound: CC1=C(C(=O)Nc2ccc(F)c(Cl)c2)C(c2cccc(Oc3ccccc3)c2)NC(=O)N1 (stereo unspecified)
- GI50 [1]: 15.4 µM
- TGI [1]: 29.8 µM
- GI50 [2]: 10.5 µM
- TGI [2]: 23.4 µM
- GI50 [3]: 14.1 µM
- TGI [3]: 30.2 µM
- GI50 [4]: 15.1 µM
- TGI [4]: 28.4 µM
- GI50 [5]: 15.3 µM
- TGI [5]: 31.1 µM
- GI50 [6]: 18.6 µM
- TGI [6]: 38.8 µM
- GI50 [7]: 10.4 µM
- TGI [7]: 26.4 µM
- GI50 [8]: 14.2 µM
- TGI [8]: 29.6 µM
- GI50 [9]: 13.4 µM
- TGI [9]: 26.4 µM
- GI50 [10]: 14.8 µM
- TGI [10]: 31.8 µM
- GI50 [11]: 14.6 µM
- TGI [11]: 27.8 µM
- GI50 [12]: 12.2 µM
- TGI [12]: 24.6 µM
- GI50 [13]: 15.4 µM
- TGI [13]: 28.9 µM
- GI50 [14]: 8.07 µM
- TGI [14]: 24.7 µM
- GI50 [15]: 15.4 µM
- TGI [15]: 29.2 µM
- GI50 [16]: 12 µM
- TGI [16]: 24.9 µM
- GI50 [17]: 12.2 µM
- TGI [17]: 32.9 µM
- GI50 [18]: 12 µM
- TGI [18]: 24.5 µM
- GI50 [19]: 10.7 µM
- TGI [19]: 24.2 µM
- GI50 [20]: 14.9 µM
- TGI [20]: 34.3 µM
- GI50 [21]: 15.4 µM
- TGI [21]: 28.7 µM
- GI50 [22]: 15.2 µM
- TGI [22]: 29.3 µM
- GI50 [23]: 17.6 µM
- TGI [23]: 43.7 µM
- GI50 [24]: 16 µM
- TGI [24]: 30.3 µM
- GI50 [25]: 18.8 µM
- TGI [25]: 39.8 µM
- GI50 [26]: 16.2 µM
- TGI [26]: 37.4 µM
- GI50 [27]: 15.4 µM
- TGI [27]: 28.8 µM
- GI50 [28]: 15.7 µM
- TGI [28]: 38.4 µM
- GI50 [29]: 14.9 µM
- TGI [29]: 29.4 µM
- GI50 [30]: 19 µM
- TGI [30]: 37.2 µM
- GI50 [31]: 20.7 µM
- TGI [31]: 57.3 µM
- GI50 [32]: 14.9 µM
- TGI [32]: 28.2 µM
- GI50 [33]: 18 µM
- TGI [33]: 43.7 µM
- GI50 [34]: 10.5 µM
- TGI [34]: 22.3 µM
- GI50 [35]: 8.51 µM
- TGI [35]: 26.3 µM
- GI50 [36]: 14.4 µM
- TGI [36]: 32.1 µM
- GI50 [37]: 15.6 µM
- TGI [37]: 40.3 µM
- GI50 [38]: 22.1 µM
- TGI [38]: 57 µM
- GI50 [39]: 14.6 µM
- TGI [39]: 28.3 µM
- GI50 [40]: 17.2 µM
- TGI [40]: 32.4 µM
- GI50 [41]: 14.7 µM
- TGI [41]: 28.1 µM
- GI50 [42]: 13.2 µM
- TGI [42]: 26.5 µM
- GI50 [43]: 18 µM
- TGI [43]: 32.7 µM
- GI50 [44]: 16.1 µM
- TGI [44]: 32.8 µM
- GI50 [45]: 16 µM
- TGI [45]: 31.3 µM
- GI50 [46]: 7.53 µM
- TGI [46]: 20.4 µM
- GI50 [47]: 18.2 µM
- TGI [47]: 38.2 µM
- GI50 [48]: 15.7 µM
- TGI [48]: 34.6 µM
- GI50 [49]: 8.67 µM
- TGI [49]: 21.7 µM
- GI50 [50]: 13.4 µM
- TGI [50]: 26.2 µM
- GI50 [51]: 18 µM
- TGI [51]: 34.9 µM
- GI50 [52]: 12.4 µM
- TGI [52]: 24.8 µM
- GI50 [53]: 12.2 µM
- TGI [53]: 26 µM
